Test results published in US20170029451A1, “BRANCHED CHAIN ACYCLIC NUCLEOSIDE PHOSPHONATE ESTERS AND METHODS OF SYNTHESIS AND USES THEREOF” (CHIMERIX, INC., priority 2013, published 2017).
Like-named read-outs stand apart in the source and are kept apart here.

What was measured:
[1] = test system: Influenza virus A/CA/10/2009; experiment: microbe, parasite or virus in culture; format: cell-based; conditions: unidentified influenza virus, MDCK, read-out: A/CA/10/2009 (EC50, μM)
[2] = test system: Influenza virus B/FL/4/2006; experiment: microbe, parasite or virus in culture; format: cell-based; conditions: unidentified influenza virus, MDCK, read-out: B/FL/4/2006 (EC50, μM)
in vitro [3] = conditions: dog
HCMV (Strain AD169) = experiment: Plaque reduction assay, HCMV AD169 in human foreskin fibroblast cells; format: cell-based, Human Cytomegalovirus (HCMV); conditions: Human betaherpesvirus 5, AD169, Fibroblast
in vitro [4] = conditions: human
[5] = test system: Human Cytomegalovirus (HCMV); experiment: HCMV EC50 in MRC-5 cells (qPCR of intracellular CMV DNA); format: cell-based; conditions: Human betaherpesvirus 5, MRC5
Procedure: Costar 96-well tissue culture plates were seeded with 20,000 MRC-5 cells/well in EMEM containing 2% Hyclone Standard Fetal Bovine Serum and 1% Hyclone Penicillin and Streptomycin. Outer wells were not used to minimize the edge-effect produced by extended incubations. Cells were inoculated with HCMV at an MOI of 0.01. Serial dilutions of test compounds were added to the cells and plates were incubated for 7 days at 37° C. in 5% CO2. […] Culture medium was gently removed from infected cells after the 7-day incubation. The cells were rinsed twice with ice-cold PBS, and then freeze/thawed once. Each well was incubated with 200 μL lysis buffer for 2 hours at 55° C. Lysis buffer included 0.5 mg/mL protease K, 50 mM KCl, 10 mM Tris-Cl pH 8.0, 2.5 mM MgCl2, 0.45% IGEPAL, and 0.45% Tween-20 dissolved in DEPC-treated water. Intracellular CMV DNA was measured by quantitative polymerase chain reaction (qPCR) using forward and reverse HCMV PCR primers, and a FAM-labeled probe. Absolute quantitation of viral copy number was performed using a standard curve with dilutions of a HCMV DNA amplicon containing sequences homologous to the amplified fragment. The following qPCR amplification conditions were used: 1 cycle at 95° C. for 10 minutes, followed by 45 cycles of 95° C. for 15 seconds and 60° C. for 60 seconds. The qPCR reactions were performed using an Applied Biosystems 7500 real Time PCR System. Gen 5 software (BioTek Instruments, Inc.) was used to calculate the concentration which inhibited the viral DNA levels of HCMV-infected MRC-5 cells by 50% (EC50).

[6] = Cytotoxicity (CC50) in MT4 cells; format: cell-based; conditions: human
Procedure: Costar 96-well tissue culture plates were seeded with 5,000 MT4 cells (NIH AIDS Reagents Program)/well in RPMI (Lonza, Cat 12-11F) containing 10% Hyclone Standard Fetal Bovine Serum (FBS, Cat 5H30088.03), 1% Hyclone Penicillin and Streptomycin (Cat SV30010), and 2 mM Lonza L-Glutamine (Cat 17-605E). Outer wells were not used to minimize the edge-effect produced by extended incubations. Serial dilutions of test compounds were added to the cells and plates were incubated for 6 days at 37° C. in 5% CO2. After 6 days of incubation 40 μL of Cell Titer 96® Aqueous MTS Reagent (Promega, G111) was added as directed by manufacturer to the 200 μL media in each well and incubated at 37° C. until the untreated-cell controls developed an 490 nm absorbance between 1.1 and 1.8. The final absorbance readings were read using a BioTek Synergy 2, and Gen 5 software (BioTek Instruments, Inc.) was used to calculate the concentration which inhibited MT4 cells by 50% (CC50).

[7] = test system: Herpes Simplex Virus 1 (Strain E-377); experiment: Plaque reduction assay, HSV-1 in human foreskin fibroblast cells; format: cell-based; conditions: Human alphaherpesvirus 1; Strain E-377, human foreskin fibroblast cells
Epstein-Barr virus = experiment: DNA Hybridization Assay for EBV in Akata cells; format: cell-based; conditions: human gammaherpesvirus 4, read-out: Efficacy DNA Hybridization Assay (EC50)
Procedure: Akata cells latently infected with EBV were obtained from John Sixbey. The GS strain of HHV-6A was obtained through the NIH AIDS Research and Reference Reagent Program.
Each experiment that evaluated the antiviral activity of the compounds included both positive and negative control compounds to ensure the performance of each assay. Concurrent assessment of cytotoxicity was also performed for each study at equivalent levels of compound exposure. When sufficient material was available, multiple assays were performed for each compound evaluation to obtain statistical data.
Assays for EBV were performed in Akata cells that were induced to undergo a lytic infection with 50 μg/ml of a goat anti-human IgG antibody by standard methods. Experimental compounds were diluted in round bottom 96-well plates to yield concentrations ranging from 20 to 0.016 μM. Akata cells were added to the plates at a concentration of 4×10^4 cells per well and incubated for 72 h. For HHV-6 assays, compounds were serially diluted in 96-well plates then 1×10^4 uninfected HSB-2 or Molt-3 cells were added to each well. Infection was initiated by adding HHV-6A infected HSB-2 cells, or HHV-6B infected Molt-3 cells, at a ratio of approximately 1 infected cell for every 10 uninfected HSB-2 cells or Molt-3 cells respectively and incubated for 7 d at 37° C. […]

in vitro [8] = conditions: human; remark: listed apart in the source
[9] = test system: Vaccinia Virus (Strain Copenhagen); experiment: microbe, parasite or virus in culture; format: cell-based; conditions: Orthopoxvirus vaccinia, Fibroblast, read-out: VACV EC50, μM
[10] = test system: Cowpox Virus (Strain Brighton); experiment: microbe, parasite or virus in culture; format: cell-based; conditions: Fibroblast, read-out: CPXV EC50, μM
[11] = test system: human foreskin fibroblast cells; experiment: Neutral red cytotoxicity assay in human foreskin fibroblast cells; conditions: read-out: VACV CC50, μm, parallel to VACV assay (second printing of Table 4)
[12] = test system: HCMV UL54 resistant mutant D542E (HDP-CDV^R); experiment: microbe, parasite or virus in culture; format: cell-based, Human Cytomegalovirus (HCMV); conditions: Human betaherpesvirus 5, Fibroblast
[13] = test system: HCMV UL54 resistant mutant GDG^RP53; experiment: microbe, parasite or virus in culture; format: cell-based, Human Cytomegalovirus (HCMV); conditions: Human betaherpesvirus 5, Fibroblast
[14] = test system: HCMV UL54 resistant mutant 4955^R; experiment: microbe, parasite or virus in culture; format: cell-based, Human Cytomegalovirus (HCMV); conditions: Human betaherpesvirus 5, Fibroblast
BKV (Gardner strain) = experiment: BKV EC50 in Vero cells (qPCR of supernatant BKV DNA); format: cell-based, BK virus (BKV); conditions: Betapolyomavirus hominis; BKV in Vero cells (Table 7); read-out: BKV EC50
Procedure: Costar 96-well tissue culture plates were seeded with 10,000 Vero cells/well in DMEM containing 2% Hyclone Standard Fetal Bovine Serum (FBS, Cat 5H30088.03) and 1% Hyclone Penicillin and Streptomycin. Outer wells were not used to minimize the edge-effect produced by extended incubations. Cells were inoculated with 115 BKV DNA copies/cell (ATCC, Gardner strain). Serial dilutions of test compounds were added to the cells and plates were incubated for 10 days at 37° C. in 5% CO2. After the 10-day incubation, 50 μL supernatant was mixed with 50 μL 2× lysis buffer that provided a final concentration 0.5 mg/mL protease K, 50 mM KCl, 10 mM Tris-Cl pH 8.0, 2.5 mM MgCl2, 0.45% IGEPAL, and 0.45% Tween-20 dissolved in DEPC-treated water. Each plate was incubated for 2 hours at 55° C. Supernatant BKV DNA was measured by quantitative polymerase chain reaction (qPCR) using forward and reverse BKV PCR primers, and a FAM-labeled probe. Absolute quantitation of viral copy number was performed using a standard curve with dilutions of a BKV DNA amplicon containing sequences homologous to the amplified fragment. The following qPCR amplification conditions were used: 1 cycle at 95° C. for 10 minutes, followed by 45 cycles of 95° C. for 15 seconds and 60° C. for 60 seconds. The qPCR reactions were performed using an Applied Biosystems 7500 real Time PCR System. Gen 5 software (BioTek Instruments, Inc.) was used to calculate the concentration which inhibited the viral DNA levels of BKV-infected Vero cells by 50% (EC50).

[15] = Mean XC50 (Table 9), read-out: HCMV EC50
[16] = Mean XC50 (Table 9), read-out: MT4 cytotoxicity CC50

Q: For `CCOC(=O)C1=C[C@@H](OC(CC)CC)[C@H](NC(C)=O)[C@@H](N)C1` [Oseltamivir, reference compound], which EC50 [1] is on record?
A: The EC50 was 0.17 µM.

Q: What about the EC50 [2] of the same compound?
A: Its EC50 is 16.2 µM.

Q: What about the CC50 (in vitro [3]) of the same compound?
A: Its CC50 is greater than 20 µM.

Q: Which results are given for `Nc1nc(O)c2ncn(COC(CO)CO)c2n1` [Ganciclovir, reference compound]?
A: EC50 (HCMV (Strain AD169); Strain AD169, human foreskin fibroblast cells, read-out: HCMV EC50): 1.5 µM; CC50 (in vitro [4]): > 100 µM

Q: Which results are given for `CCCCCCCCCCCCCCCCOCCCOP(=O)(O)CO[C@H](CO)Cn1ccc(=O)[nH]c1=O` [Compound 24]?
A: EC50 [5, 15]: 0.008 µM; CC50 at 6 days [6, 16]: 13.5 µM

Q: For `Nc1nc2c(ncn2COCCO)c(=O)[nH]1` [Acyclovir, reference compound], which EC50 [7] is on record?
A: Its EC50 is 2.2 µM.

Q: What about the EC50 (Epstein-Barr virus) of the same compound?
A: Its EC50 is 7 µM.

Q: What about the CC50 (in vitro [4]) of the same compound?
A: The CC50 was greater than 100 µM.

Q: What about the CC50 (in vitro [8]) of the same compound?
A: The CC50 was greater than 100 µM.

Q: For `Nc1ccn(C[C@@H](CO)OCP(=O)(O)O)c(=O)n1` [Cidofovir, reference compound], which EC50 [9] is on record?
A: Its EC50 is 22.4 µM.

Q: And the EC50 [10]?
A: Its EC50 is 30.5 µM.

Q: What about the CC50 (in vitro [4]; CPXV CC50, μM, Human Foreskin Fibroblast Cells, parallel to CPXV assay) of the same compound?
A: The CC50 was greater than 300 µM.

Q: And the CC50 [11]?
A: The CC50 was greater than 300 µM.

Q: Which results are given for `CCCCCCCCCCCCCCCCOCCCOP(=O)(O)CO[C@H](CO)Cn1ccc(N)nc1=O` [HDP-CDV, Hexadecyloxypropyl-Cidofovir, reference compound]?
A: EC50 (HCMV (Strain AD169); Virus AD169, human foreskin fibroblast cells (Table 3), read-out: EC50): 0.001 µM; EC50 ([12]; read-out: EC50 μM, Virus D542E (HDP-CDV^R), human foreskin fibroblast cells): 0.0295 µM; EC90 ([12]; read-out: EC90 μM): 0.153 µM; EC50 ([13]; read-out: EC50 μM, Virus GDG^RP53, human foreskin fibroblast cells): 0.0053 µM; EC90 ([13]; read-out: EC90 μM): 0.0316 µM; EC50 ([14]; read-out: EC50 μM, Virus 4955^R, human foreskin fibroblast cells): 0.0013 µM; EC90 ([14]; read-out: EC90 μM): 0.006 µM; EC50 ([5]; HCMV in MRC-5 cells (Table 7), read-out: CMV EC50): 0.0004 µM; EC50 [5, 15]: 0.0003 µM; EC50 (BKV (Gardner strain)): 0.018 µM; CC50 at 6 days ([6]; MT4 cells (Table 7), read-out: MT4 CC50): 0.06 µM; CC50 at 6 days [6, 16]: 0.06 µM
